Measurements reported in patent US20020197244A1, “Compositions and methods for regulating phagocytosis and ICAM-1 expression” (priority 1998, published 2002).

B1: STI: Soybean trypsin inhibitor, a serine protease inhibitor capable of affecting the PAR-2 pathway (protein, UniProt P01070 25-205, looked up)
Trypsin inhibitor A: DFVLDNEGNPLENGGTYYILSDITAFGGIRAAPTGNERCPLTVVQSRNELDKGIGTIISSPYRIRFIAEGHPLSLKFDSFAVIMLCVGIPTEWSVVEDLPEGPAVKIGENKDAMDGWFRLERVSDDEFNNYKLVFCPQQAEDDKCGDIGISIDHDDGTRRLVVSKNKPLVVQFQKLDKESL

Tests used:
[1] = system: Keratinocytes; test: F-actin staining of keratinocytes; format: cell-based; conditions: Compound I 10 nM, STI 0.1 mg/ml, SLIGRL 5 μM; FIG. 9
Procedure: Therefore, the organization of F-actin filaments following PAR-2 modulation was tested. Keratinocytes were treated with Compound I (10 nM), STI (0.1 mg/ml), or with SLIGRL (5 μM) as described in Example 1, and stained for F-actin using standard techniques.

[2] = system: human keratinocyte cell line HaCaT; test: Fluorescent microsphere ingestion by keratinocyte cell line HaCaT; format: cell-based; conditions: FIG. 2
Procedure: In order to study the role of the PAR-2 pathway in phagocytosis, several in vitro model systems were used. One system used contained primary human keratinocytes or a human keratinocyte cell line. In this and a number of following examples, cells were treated with test compounds for different amounts of time (from one hour to three days), and samples were then incubated with fluorescent microspheres for two hours. The beads ingested by the cells were photographed using fluorescence microscopy.
(§1) In this example, human primary keratinocytes or the human keratinocyte cell line HaCaT were used as in vitro model systems to study the effect of PAR-2 regulators on keratinocyte phagocytosis. The human primary keratinocytes used are commercially available from Clonetics (San Diego, Calif.). Cells were plated on chamber slides, at 2 chambers/slide and 60,000 cells/chamber. Cells were treated once daily, for two or three days, with Compound I (1μM), SLIGRL (10μM), or vehicle (Phosphate-buffered saline, (“PBS”) from Gibco-BRL (Gaithersburg, Md.). After two or three days of exposure to the test compounds, cells were exposed to Nile-red or FITC fluorescent microspheres, 1 μm in diameter, 50 microspheres/cell, for two hours at 37° C. Microspheres were from Molecular Probes (Eugene, Oreg.), and were processed according to manufacturer's instructions. Following that treatment, cells were incubated with 15% Fetal Bovine Serum (“FBS”, from Gibco-BRL), for 15 minutes at 37° C. and rinsed with PBS. At that time, chambers were separated from the slides, and the slides were covered with glycerol and coverslips. Fluorescent microscopy was performed using a Zeiss Axiovert 35 or a Nikon Optiphot-2 microscope.
The same results were also obtained when the human keratinocyte cell line HaCaT was used instead of the primary keratinocytes (see FIG. 2). SLIGRL, STI and Compound I were tested for their effect on keratinocyte phagocytosis. In these experiments, the extracellular accumulation of microspheres could be washed off. […]

[3] = system: Keratinocytes; test: Melanin/melanosome uptake by keratinocytes, Fontana-Mason staining; format: cell-based; conditions: treated two days, melanin two hours; FIG. 5A; same results with isolated melanosomes (FIG. 5B)
Procedure: This example tests the ability of keratinocytes to acquire melanin or melanosomes in vitro, and thus function as a simplified system for melanosome uptake in the skin. Keratinocytes were plated in glass chamber-slides as described earlier, and were treated for two days with SLIGRL, Compound I or STI. At that time, melanin powder (from Sigma, St. Louis, Mo.) was mixed in sterile PBS at 10 μg/ml, and was added to the culture media (1:10 dilution) for two hours. Cells were then washed with PBS and stained with Fontana-Mason (“F&M”) staining. F&M stains silver nitrate-reducing molecules, thereby permitting the identification of melanins inside the keratinocytes. […] This system, therefore, can mimic melanosome transfer and melanin distribution in vivo, as skin keratinocytes use melanin as an UV-protective cap over their nuclei. […] The same results were also observed using melanosomes isolated as described in S. Orlow, et al., J.I.D. 100:55-64 (1993) (FIG. 5B).

[4] = system: macrophage cell line IC-21; test: Vybrant Phagocytosis Assay Kit, fluorescein-labeled E. coli K-12 particles; format: cell-based; conditions: for % effect (ingestion): treated overnight, 100 nM Compound I, 5 μM SLIGRL, 0.1 mg/ml STI, untreated control = 100, one experiment of three; for phagocytosis, dose-response: STI 0, 0.01, 0.1, 1 mg/ml, Compound I 0.01, 0.1, 1 nM, FIG. 4A, 4B
Procedure: To better quantify the level of phagocytosis, the “Vybrant™ Phagocytosis Assay Kit” of Molecular Probes (Eugene, Oreg.) was used, following manufacturer's instructions, with modification of cell culture conditions for the IC-21 cell line. This kit uses Fluorescein-labeled E. coli K-12 particles, and is designed for quantifying the effects of drugs or other environmental factors on phagocytic functions. Macrophages were treated overnight with 100 nM of Compound I, 5 μM of SLIGRL, or 0.1 mg/ml of STI, all dissolved in PBS. The ability of the treated macrophages to ingest the fluorescent E. coli, as measured by this kit, is documented in Table 1. This experiment was repeated three times.
In order to verify the quantitative nature of the macrophage-phagocytosis assay, a dose-response experiment was performed. Macrophages were treated with 0, 0.01, 0.1 and 1 mg/ml of STI, and the experiment was performed as described in Example 3. […] Each experiment was repeated three times.

[5] = system: Human keratinocytes; test: Keratinocyte microsphere phagocytosis dose-response, image analysis; format: cell-based; conditions: two days; for phagocytosis with increasing concentrations: SLIGRL 0, 5 and 10M, Compound I 1 pM to 1 μM, STI 0.01 to 1 mg/ml; for % Ingestion: untreated = 100 +/− 12
Procedure: as §1
Dose-response Relationship Between PAR-2 Signaling and Keratinocyte Phagocytosis Human keratinocytes were treated with increasing concentrations of SLIGRL, the PAR-2 peptide activator and agonist, at 0, 5 and 10M for two days in the same manner as set forth in Example 1. […] Human keratinocytes were also treated with increasing concentrations of Compound I and STI for two days.
Image analysis of the fluorescent beads inside the keratinocytes was used as an alternative way to quantify the phagocytic effect in this system. Empire Imagins Database Version 1.1 was used on a Gateway 2000 P5-100 computer (Media Cybernetics, Silver Springs, Md.) for capturing images. Image Pro Plus version 1.3 was used for measurements, and Microsoft Excel version 5.0 was used for data processing. Data obtained from this keratinocyte-microsphere system were in full agreement with data from the macrophage/E. coli system.

[6] = system: macrophage cell line IC-21; test: Fluorescent microsphere ingestion by macrophages; format: cell-based; conditions: IC-21 macrophages
Procedure: as §1
The experiment described in Example 1 was repeated using the macrophage cell line IC-21 (obtained from the ATCC), which shares phagocytic characteristics with peritoneal macrophages. As shown for keratinocytes and fibroblasts, Compound I and STI reduced, and SLIGRL increased, the number of microspheres ingested by these macrophages which are “professional phagocytic” cells.

[7] = system: ICAM-1; test: ICAM-1 immunofluorescent staining of keratinocytes; format: cell-based, human; conditions: vs untreated keratinocytes; FIG. 6A
Procedure: Intercellular adhesion molecule-1 (ICAM-1) is an inducible cell-surface glycoprotein that is implicated in cell-cell adhesion, cell membrane raffling and phagocytosis. Therefore, the effect of PAR-2 modulation on ICAM-1 was tested. Keratinocytes were grown in chamber slides and treated with SLIGRL, Compound I and STI as described, followed by immunofluorescent staining for ICAM-1 using standard procedures. Normal donkey serum, (used at 1:5 dilution), was obtained from Jackson Immunoresearch Laboratory (Westgrove, Pa.). A polyclonal goat anti-human ICAM-1 antibody, (used at 1:200 dilution), was obtained from R&D Systems (Minneapolis, Minn.), and FITC-conjugated donkey anti-goat antibody was obtained from Jackson Immunoresearch Laboratory. […] In untreated keratinocytes, ICAM-1 was localized mainly to the plasma membrane, with some staining at the nuclear membrane.

Molecule | actin filaments organization [1] | microsphere ingestion [2] | uptake (internalization) of melanin by keratinocytes [3] | % effect (ingestion) [4] | phagocytosis with increasing concentrations [5] | number of microspheres ingested [6] | intracellular localization of ICAM-1 [7] | phagocytosis, dose-response [4] | % Ingestion ([5]; STI 0.01%) | % Ingestion ([5]; STI 0.1%) | % Ingestion ([5]; STI 1%)
CN[C@H](Cc1ccccc1)C(=O)N1CCCC1C(=O)N[C@@H](CCCNC(=N)N)C(=O)c1nc2ccccc2s1 (stereo partly drawn) [Compound I, (S)-N-Methyl-D-phenylalanyl-N-[4-[(aminoiminomethyl)amino]-1-(2-benzothiazolylcarbonyl)butyl]-L-prolinamide] | reduced the ordered organization of the cell cortex | reduce microsphere ingestion | dramatically reduce the uptake of melanin | 89.9 +/− 13.6% | dose-dependent decrease in phagocytosis | reduced | less staining was observed at the cytoplasmic membrane, and more at the nuclear membrane |  |  |  | 
SLIGRL [reference compound] | induced actin polymerization around the cell cortex | increased microsphere ingestion | dramatically increases the internalization of melanin | 331.6 +/− 5.9% | increased phagocytosis | increased | increased and more diffused cytoplasmic membrane staining, and reduced nuclear membrane staining | increase in phagocytosis |  |  | 
B1 | reduced the ordered organization of the cell cortex | reduce microsphere ingestion | dramatically reduce the uptake of melanin | 56.06 +/− 12.4% | dose-dependent decrease in phagocytosis | reduced | less staining was observed at the cytoplasmic membrane, and more at the nuclear membrane | dose-response of decreased phagocytosis | 76 +/− 15% | 55 +/− 14% | 41.6 +/− 11%
